In patent US12522851B2, “Method for purifying indole-3-lactic acid from Lactobacillus plantarum fermentation supernatant” (Zhejiang Gongshang University, priority 2021, dated 2026):

What was measured:
Assay in all cases: Oxford cup method antibacterial activity
Format in all cases: cell-based
[1] = tested on: Staphylococcus carnosus pCA44; settings: PCA44, read-out: Diameter of inhibition zone
Method: (§1) The antibacterial activity of indole-3-lactic acid obtained by purification in step III in Embodiment 2 (i.e., concentrated H4 with a purity of 99.00%) was determined by an oxford cup method. 1% (volume concentration) of indicator bacteria was added to 150 μL of 10 mg/ml indole-3-lactic acid (dissolved in 1% acetonitrile aqueous solution). […] Listeria monocytogenes LM1, Bacillus subtilis BAS2, Salmonella paratyphi B CMCC50094, Salmonella paratyphi A CMCC50093, Salmonella enterica subsp. arizonae CMCC (B) 47001 and Salmonella typhimurium CMCC50015 were purchased from National Center for Medical Culture Collections (CMCC). Escherichia coli DH5a was purchased from Sangon Biotech (Shanghai) Co., Ltd. Staphylococcus aureus ATCC25923, Pseudomonas aeruginosa ATCC47085, Salmonella enterica subsp. enterica ATCC14028 and Salmonella choleraseuis ATCC13312 were purchased from American Type Culture Collection (ATCC). Micrococcus luteus CICC 10209 was purchased from China Center of Industrial Culture Collection (CICC). Staphylococcus citreus LC5 was purchased from China Center for Type Culture Collection (CCTCC). Staphylococcus simulans, Staphylococcus warneri, Staphylococcus carnosus pCA44 and Staphylococcus carnosus pot20 were presented by Professor Eefjan Breukink of Utrecht University in the Netherlands.

Escherichia coli DH5α = settings: 150 μL of 10 mg/ml in 1% acetonitrile aqueous solution, 1% indicator bacteria, read-out: Diameter of inhibition zone
Method: as §1

Staphylococcus simulans = settings: 150 μL of 10 mg/ml in 1% acetonitrile aqueous solution, 1% indicator bacteria, read-out: Diameter of inhibition zone
Method: as §1

[2] = tested on: Listeria monocytogenes LM1; settings: 150 μL of 10 mg/ml in 1% acetonitrile aqueous solution, 1% indicator bacteria, read-out: Diameter of inhibition zone
Method: as §1

[3] = tested on: Salmonella paratyphi B CMCC50094; settings: Salmonella enterica, 150 μL of 10 mg/ml in 1% acetonitrile aqueous solution, 1% indicator bacteria, read-out: Diameter of inhibition zone
Method: as §1

[4] = tested on: Salmonella typhimurium CMCC50015; settings: Salmonella enterica, 150 μL of 10 mg/ml in 1% acetonitrile aqueous solution, 1% indicator bacteria, read-out: Diameter of inhibition zone
Method: as §1

[5] = tested on: Salmonella enterica subsp. enterica ATCC14028; settings: 150 μL of 10 mg/ml in 1% acetonitrile aqueous solution, 1% indicator bacteria, read-out: Diameter of inhibition zone
Method: as §1

[6] = tested on: Staphylococcus carnosus pot20; settings: 150 μL of 10 mg/ml in 1% acetonitrile aqueous solution, 1% indicator bacteria, read-out: Diameter of inhibition zone
Method: as §1

Bacillus subtilis BAS2 = settings: 150 μL of 10 mg/ml in 1% acetonitrile aqueous solution, 1% indicator bacteria, read-out: Diameter of inhibition zone
Method: as §1

[7] = tested on: Staphylococcus citreus LC5; settings: 150 μL of 10 mg/ml in 1% acetonitrile aqueous solution, 1% indicator bacteria, read-out: Diameter of inhibition zone
Method: as §1

[8] = tested on: Pseudomonas aeruginosa ATCC47085; settings: 150 μL of 10 mg/ml in 1% acetonitrile aqueous solution, 1% indicator bacteria, read-out: Diameter of inhibition zone
Method: as §1

[9] = tested on: Salmonella choleraseuis ATCC13312; settings: 150 μL of 10 mg/ml in 1% acetonitrile aqueous solution, 1% indicator bacteria, read-out: Diameter of inhibition zone
Method: as §1

[10] = tested on: Micrococcus luteus CICC 10209; settings: CICC10209, 150 μL of 10 mg/ml in 1% acetonitrile aqueous solution, 1% indicator bacteria, read-out: Diameter of inhibition zone
Method: as §1

Staphylococcus warneri = settings: 150 μL of 10 mg/ml in 1% acetonitrile aqueous solution, 1% indicator bacteria, read-out: Diameter of inhibition zone
Method: as §1

[11] = tested on: Salmonella paratyphi A CMCC50093; settings: Salmonella enterica, 150 μL of 10 mg/ml in 1% acetonitrile aqueous solution, 1% indicator bacteria, read-out: Diameter of inhibition zone
Method: as §1

[12] = tested on: Salmonella enterica subsp. arizonae CMCC(B)47001; settings: 150 μL of 10 mg/ml in 1% acetonitrile aqueous solution, 1% indicator bacteria, read-out: Diameter of inhibition zone
Method: as §1

[13] = tested on: Staphylococcus aureus ATCC25923; settings: 150 μL of 10 mg/ml in 1% acetonitrile aqueous solution, 1% indicator bacteria, read-out: Diameter of inhibition zone
Method: as §1

O=C(O)C(O)Cc1c[nH]c2ccccc12 (centres unmarked) [indole-3-lactic acid, Indole-3-lactic acid]
zone of inhibition at 10000 µg/mL [1]: 16.4 ± 0.27 mm
zone of inhibition at 10000 µg/mL (Escherichia coli DH5α): 12.5 ± 0.17 mm
zone of inhibition at 10000 µg/mL (Staphylococcus simulans): 13.4 ± 0.25 mm
zone of inhibition at 10000 µg/mL [2]: 10.95 ± 0.07 mm
zone of inhibition at 10000 µg/mL [3]: 13.2 ± 0.21 mm
zone of inhibition at 10000 µg/mL [4]: 12.7 ± 0.18 mm
zone of inhibition at 10000 µg/mL [5]: 12.8 ± 0.17 mm
zone of inhibition at 10000 µg/mL [6]: 15 ± 0.55 mm
zone of inhibition at 10000 µg/mL (Bacillus subtilis BAS2): 15.67 ± 0.01 mm
zone of inhibition at 10000 µg/mL [7]: 13.06 ± 0.08 mm
zone of inhibition at 10000 µg/mL [8]: 10.66 ± 0.08 mm
zone of inhibition at 10000 µg/mL [9]: 13.6 ± 0.23 mm
zone of inhibition at 10000 µg/mL [10]: 19.1 ± 0.76 mm
zone of inhibition at 10000 µg/mL (Staphylococcus warneri): 18.76 ± 0.06 mm
zone of inhibition at 10000 µg/mL [11]: 15.06 ± 0.08 mm
zone of inhibition at 10000 µg/mL [12]: 13.4 ± 0.45 mm
zone of inhibition at 10000 µg/mL [13]: 13.4 ± 0.25 mm
